Assay results published in patent publication US7282608B2, “Inhibitors of histone deacetylase” (Methylgene, Inc., priority 2002, dated 2007).
Where two headings read alike, the source gives them in different places.

Experiments:
HCT116 cells = experiment: MTT assay; assay type: cell-based; conditions: Homo sapiens, HCT-116, 72 hours
Description: HCT116 cells (2000/well) were plated into 96-well tissue culture plates one day before compound treatment. Compounds at various concentrations were added to the cells. The cells were incubated for 72 hours at 37° C. in 5% CO2 incubator. MTT (3-[4,5-dimethylthiazol-2-yl]-2,5 diphenyl tetrazolium bromide, Sigma) was added at a final concentration of 0.5 mg/ml and incubated with the cells for 4 hours before one volume of solubilization buffer (50% N,N-dimethylformamide, 20% SDS, pH 4.7) was added onto the cultured cells. After overnight incubation, solubilized dye was quantified by colorimetric reading at […] using a reference at […] using an MR700 plate reader (Dynatech Laboratories Inc.). OD values were converted to cell numbers according to a standard growth curve of the relevant cell line. The concentration which reduces cell numbers to 50% of that of solvent treated cells is determined as MTT IC50. IC50 values for representative compounds are presented in the fourth column of Tables 7–10.

Human HDAC-1 = Human HDAC-1 (Homo sapiens, UniProt Q13547); experiment: Human HDAC-1 Assay 2: Boc-Lys(Ac)-AMC fluorescence assay; assay type: biochemical; conditions: Assay 2, bracketed [ ] data; Boc-Lys(Ac)-AMC substrate
Human HDAC-1, sequence (Q13547 whole entry): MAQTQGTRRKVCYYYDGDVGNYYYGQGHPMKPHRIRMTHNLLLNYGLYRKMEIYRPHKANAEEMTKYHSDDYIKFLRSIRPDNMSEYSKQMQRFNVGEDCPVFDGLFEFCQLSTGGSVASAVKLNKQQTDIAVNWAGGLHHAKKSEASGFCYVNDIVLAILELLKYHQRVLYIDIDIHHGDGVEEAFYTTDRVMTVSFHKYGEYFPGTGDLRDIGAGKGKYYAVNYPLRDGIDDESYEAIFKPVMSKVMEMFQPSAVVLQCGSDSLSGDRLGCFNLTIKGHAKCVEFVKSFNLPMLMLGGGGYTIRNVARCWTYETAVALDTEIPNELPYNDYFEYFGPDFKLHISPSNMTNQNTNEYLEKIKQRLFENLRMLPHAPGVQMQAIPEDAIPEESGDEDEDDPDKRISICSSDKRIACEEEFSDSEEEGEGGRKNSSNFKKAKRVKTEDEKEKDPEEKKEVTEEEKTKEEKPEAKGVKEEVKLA
Description: In the alternative, the following protocol was used to assay the compounds of the invention. In the assay, the buffer used was 25 mM HEPES, pH 8.0, 137 mM NaCl, 2.7 mM KCl, 1 mM MgCl2 and the subtrate was Boc-Lys(Ac)-AMC in a 50 mM stock solution in DMSO. The enzyme stock solution was 4.08 μg/mL in buffer.
The compounds were pre-incubated (2 μl in DMSO diluted to 13 μl in buffer for transfer to assay plate) with enzyme (20 μl of 4.08 μg/ml) for 10 minutes at room temperature (35 μl pre-incubation volume). The mixture was pre-incubated for 5 minutes at room temperature. The reaction was started by bringing the temperature to 37° C. and adding […] substrate. Total reaction volume was 50 μl. The reaction was stopped after 20 minutes by addition of 50 μl developer, prepared as directed by Biomol (Fluor-de-Lys developer, Cat. # KI-105). A plate was incubated in the dark for 10 minutes at room temperature before reading (λEX=360 nm, λEx=470 nm, Cutoff filter at 435 nm).
IC50 values for representative compounds assayed using this procedure are presented in the third column of Table 9 (bracketed [ ] data).

[1] = tested on: acetylated histone H-4 in T24 human bladder cancer cells; experiment: Histone H4 acetylation in whole cells by immunoblots; assay type: cell-based; conditions: 16 h, read-out: H4 Ac (T24) EC50
Description: T24 human bladder cancer cells growing in culture were incubated with HDAC inhibitors for 16 h. Histones were extracted from the cells after the culture period as described by M. Yoshida et al. (J. Biol. Chem. 265(28): 17174–17179 (1990)). […] of total histone protein was loaded onto SDS/PAGE and transferred to nitrocellulose membranes. Membranes were probed with polyclonal antibodies specific for acetylated histone H-4 (Upstate Biotech Inc.), followed by horse radish peroxidase conjugated secondary antibodies (Sigma). Enhanced Chemiluminescence (ECL) (Amersham) detection was performed using Kodak films (Eastman Kodak). Acetylated H-4 signal was quantified by densitometry. Representative data are presented in the fifth column of Table 7–10. Data are presented as the concentration effective for […] the acetylated H-4 signal by 50% (EC50).

[2] = biological target: T1, cloned recombinant human HDAC-1 (Homo sapiens, UniProt Q13547); experiment: Human HDAC-1 Assay 1: [3H]-acetylated histone deacetylase assay; assay type: biochemical; conditions: Assay 1, unbracketed data; [3H]-acetylated histone substrate, 10 min at 37° C.
T1 construct: made in house; host or cells: Baculovirus insect cell expression system
T1 sequence (Q13547 whole entry): as above
Description: HDAC inhibitors were screened against a cloned recombinant human HDAC-1 enzyme expressed and purified from a Baculovirus insect cell expression system. For deacetylase assays, 20,000 cpm of the [^3H]-metabolically labeled acetylated histone substrate (M. Yoshida et al., J. Biol. Chem. 265(28): 17174–17179 (1990)) was incubated with 30 μg of the cloned recombinant hHDAC-1 for 10 minutes at 37° C. The reaction was stopped by adding acetic acid (0.04 M, final concentration) and HCl (250 mM, final concentration). […] For inhibition studies, the enzyme was preincubated with compounds at 4° C. for 30 minutes prior to initiation of the enzymatic assay. IC50 values for HDAC enzyme inhibitors were determined by performing dose response curves with individual compounds and determining the concentration of inhibitor producing fifty percent of the maximal inhibition. IC50 values for representative compounds assayed using this procedure are presented in the third column of Tables 7–10 (excepting bracketed data).

[3] = tested on: HCT116 human colorectal carcinoma cells; experiment: Antineoplastic effects on human tumor xenografts in vivo; set-up: species or system CD1 nude mice; conditions: HCT116 xenograft, daily injection i.v., s.c. or i.p., starting dose 10 mg/kg
Description: Eight to ten week old female CD1 nude mice (Taconic Labs, Great Barrington, N.Y.) were injected subcutaneously in the flank area with 2×10^6 preconditioned HCT116 human colorectal carcinoma cells. Preconditioning of these cells was done by a minimum of three consecutive tumor transplantations in the same strain of nude mice. Subsequently, tumor fragments of approximately 30 mgs were excised and implanted subcutaneously in mice, in the left flank area, under Forene anesthesia (Abbott Labs, Geneva, Switzerland). When the tumors reached a mean volume of 100 mm^3, the mice were treated intravenously, subcutaneously, or intraperitoneally by daily injection, with a solution of the histone deacetylase inhibitor in an appropriate vehicle, such as PBS, DMSO/water, or Tween 80/water, at a starting dose of 10 mg/kg. The optimal dose of the HDAC inhibitor was established by dose response experiments according to standard protocols. Tumor volume was calculated every second day post infusion according to standard methods (e.g., Meyer et al., Int. J. Cancer 43: 851–856 (1989)).

SMILES	IC50 (HCT116 cells) [nM]	IC50 (Human HDAC-1) [nM]	EC50 ([1]; immunoblot densitometry) [nM]	IC50 [2] [nM]	EC50 ([1]; code 9999 of the footnote) [nM]	reduction in tumor weight and volume relative to vehicle controls [3]
CN(C/C=C/c1ccc(C(=O)Nc2ccccc2N)cc1)Cc1ccccc1 [XXXd, N-(2-Amino-phenyl)-4-[3-(benzyl-methyl-amino)-propenyl]-benzamide]	2000	170	–	–	–	–
COc1ccc(NC/C=C/c2ccc(C(=O)Nc3ccccc3N)cc2)cc1OC1CCCC1 [XVa, N-(2-Amino-phenyl)-4-[3-(3-cyclopentyloxy-4-methoxy-phenylamino)-propenyl]-benzamide]	1000	–	1000	2000	–	–
Nc1ccccc1NC(=O)c1ccc(/C=C/CN2CCN(c3ccccn3)CC2)cc1 [XXXc, N-(2-Amino-phenyl)-4-[3-(4-pyridin-2-yl-piperazin-1-yl)-propenyl]-benzamide]	500	820	2000	–	–	–
CSc1nc(NC/C=C/c2ccc(C(=O)Nc3ccccc3N)cc2)n[nH]1 [XVe, N-(2-Amino-phenyl)-4-[3-(5-methylsulfanyl-1H-[1,2,4]triazol-3-ylamino)-propenyl]-benzamide]	500	–	1000	2000	–	–
Nc1ccccc1NC(=O)c1ccc(/C=C/C(=O)NC2Cc3ccccc3C2)cc1 [Vh, N-(2-Amino-phenyl)-4-[2-(indan-2-ylcarbamoyl)-vinyl]-benzamide]	1000	–	10000	3000	–	–
Nc1ccccc1NC(=O)c1ccc(C(=O)/C=C/c2ccc(OC(F)F)c(OC3CC3)c2)cc1 [Ig, N-(2-Amino-phenyl)-4-[3-(3-cyclopropoxy-4-difluoromethoxy-phenyl)-acryloyl]-benzamide]	700	–	–	3000	> 25000	–
Nc1ccccc1NC(=O)c1ccc(C(=O)/C=C/c2ccc(C(F)(F)F)cc2)cc1 [Ih, N-(2-Amino-phenyl)-4-[3-(4-trifluoromethyl-phenyl)-acryloyl]-benzamide]	1000	–	5000	5000	–	–
Nc1ccccc1NC(=O)c1ccc(/C=C/CNC2Cc3ccccc3C2)cc1 [XXXe, N-(2-Amino-phenyl)-4-[3-(indan-2-ylamino)-propenyl]-benzamide]	2000	790	–	–	–	–

Now from value to compound, other results behind:

IC50 (HCT116 cells) [nM]	IC50 (Human HDAC-1) [nM]	EC50 ([1]; immunoblot densitometry) [nM]	IC50 [2] [nM]	EC50 ([1]; code 9999 of the footnote) [nM]	SMILES	reduction in tumor weight and volume relative to vehicle controls [3]
200	–	< 1000	2000	–	Nc1ccccc1NC(=O)c1ccc(/C=C/CNc2nccc(-c3cccnc3)n2)cc1 [XVj, N-(2-Amino-phenyl)-4-[3-(4-pyridin-3-yl-pyrimidin-2-ylamino)-propenyl]-benzamide]	significant reduction in tumor weight and volume
300	–	3000	10000	–	Nc1ccccc1NC(=O)c1ccc(/C=C/C(=O)c2ccc(N3CCOCC3)cc2)cc1 [XXIVf, N-(2-Amino-phenyl)-4-[3-(4-morpholin-4-yl-phenyl)-3-oxo-propenyl]-benzamide]	–
800	–	5000	3000	–	COc1ccccc1C(=O)/C=C/c1ccc(C(=O)Nc2ccccc2N)cc1 [XXIVe, N-(2-Amino-phenyl)-4-[3-(2-methoxy-phenyl)-3-oxo-propenyl]-benzamide]	–
600	–	2000	2000	–	Nc1ccccc1NC(=O)c1ccc(CCC(=O)c2ccccc2)cc1 [XXVIIa, N-(2-Amino-phenyl)-4-(3-oxo-3-phenyl-propyl)-benzamide]	–
700	–	5000	4000	–	COc1ccc(/C=C/C(=O)c2ccc(C(=O)Nc3ccccc3N)cc2)cc1OC1CCCC1 [Ij, N-(2-Amino-phenyl)-4-[3-(3-cyclopentyloxy-4-methoxy-phenyl)-acryloyl]-benzamide]	–
400	–	3000	4000	–	Nc1ccccc1NC(=O)c1ccc(/C=C/C(=O)c2ccccc2)cc1 [XXIVa, N-(2-Amino-phenyl)-4-(3-oxo-3-phenyl-propenyl)-benzamide]	–
300	–	1000	5000	–	Nc1ccccc1NC(=O)c1ccc(/C=C/C(=O)NCCc2cccnc2)cc1 [Vf, N-(2-Amino-phenyl)-4-[2-(2-pyridin-3-yl-ethylcarbamoyl)-vinyl]-benzamide]	–
1000	260	4000	–	–	Nc1ccccc1NC(=O)c1ccc(/C=C/CN2Cc3ccccc3C2)cc1 [XXXa, N-(2-Amino-phenyl)-4-[3-(1,3-dihydro-isoindol-2-yl)-propenyl]-benzamide]	–
400	–	–	3000	> 25000	Nc1ccccc1NC(=O)c1ccc(C(=O)/C=C/c2c(Cl)cccc2Cl)cc1 [Ic, N-(2-Amino-phenyl)-4-[3-(2,6-dichloro-phenyl)-acryloyl]benzamide]	–
100	–	3000	8000	–	Nc1ccccc1NC(=O)c1ccc(/C=C/C(=O)c2ccccc2[N+](=O)[O-])cc1 [XXIVb, N-(2-Amino-phenyl)-4-[3-(2-nitro-phenyl)-3-oxo-propenyl]-benzamide]	–
